Like-named read-outs stand apart in the source and are kept apart here.
Experiments:
UACC-62 (Melanoma) = experiment: NCI-60 screen (SRB, 48 h); details: Homo sapiens; for GI50: UACC-62; for IC (TGI): UACC-62, 48 h, read-out: TGI; for CC50: UACC-62, read-out: LC50
HOP-62 (NSC lung cancer) = experiment: NCI-60 screen (SRB, 48 h); details: Homo sapiens; for GI50: HOP-62; for IC (TGI): HOP-62, 48 h, read-out: TGI
SN12C (Renal cancer) = experiment: NCI-60 screen (SRB, 48 h); details: Homo sapiens; for IC (TGI): 48 h, read-out: TGI
[1] = tested on: MDA-MB-31/ATCC (Breast cancer); experiment: NCI-60 screen (SRB, 48 h); details: Homo sapiens; for IC (TGI): 48 h, read-out: TGI
[2] = tested on: MDA-MB-468 (Breast cancer); experiment: cells; details: Homo sapiens; for GI50: MDA-MB-468; for IC (TGI): MDA-MB-468, 48 h, read-out: TGI; for CC50: MDA-MB-468, read-out: LC50
[3] = tested on: NIH 3T3 (non-malignant mouse fibroblasts); experiment: SRB cytotoxicity assay, 72 h; assay type: cell-based; details: NIH 3T3, 72 h, cut-off 30 µM
Outline: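 EC50 values from SRB absorbance (570 nm) after TCA fixation, as percent surviving cells versus untreated controls. Compound exposure was 72 h at 0–30 µM, starting 24 h post-seeding, with final DMSO not above 0.5%.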

HCT-116 (Colon cancer) = experiment: NCI-60 screen (SRB, 48 h); details: Homo sapiens; for GI50: HCT-116; for activity at 10 µM / IC (TGI): HCT-116, 48 h; for activity at 10 µM: read-out: Growth % of the Most Sensitive Cell Lines; for IC (TGI): read-out: TGI
SNB-75 (CNS cancer) = experiment: NCI-60 screen (SRB, 48 h); details: for GI50 / IC (TGI) / CC50: Homo sapiens; for GI50: SNB-75; for IC (TGI): SNB-75, 48 h, read-out: TGI; for CC50: SNB-75, read-out: LC50
BT-549 (Breast cancer) = experiment: NCI-60 screen (SRB, 48 h); assay type: cell-based; details: Homo sapiens; for IC (TGI): BT-549, 48 h
PC-3 (Prostate cancer) = experiment: NCI-60 screen (SRB, 48 h); details: Homo sapiens; for GI50: PC-3; for IC (TGI): PC-3, 48 h, read-out: TGI
OVCAR-8 (Ovarian cancer) = experiment: NCI-60 screen (SRB, 48 h); details: Homo sapiens; for GI50: OVCAR-8; for IC (TGI): OVCAR-8, 48 h, read-out: TGI
OVCAR-4 (Ovarian cancer) = experiment: NCI-60 screen (SRB, 48 h); assay type: cell-based; details: Homo sapiens; for IC (TGI): OVCAR-4, 48 h; for GI50: read-out: GI50
[4] = tested on: NCI/ADR-RES (Ovarian cancer); experiment: NCI-60 screen (SRB, 48 h); details: Homo sapiens; for IC (TGI): 48 h, read-out: TGI
SK-OV-3 (Ovarian cancer) = experiment: NCI-60 screen (SRB, 48 h); details: Homo sapiens; for GI50: SK-OV-3; for IC (TGI): SK-OV-3, 48 h, read-out: TGI
Renal Cancer subpanel = experiment: NCI-60 screen, subpanel; details: Homo sapiens; for IC (TGI): 48 h, read-out: TGI MG_MID; for GI50: read-out: GI50 MG_MID; for CC50: read-out: LC50 MG_MID
786-0 (Renal cancer) = experiment: NCI-60 screen (SRB, 48 h); details: Homo sapiens; for GI50: 786-0; for IC (TGI): 786-0, 48 h, read-out: TGI
A498 (Renal cancer) = experiment: NCI-60 screen (SRB, 48 h); details: for GI50 / IC (TGI) / CC50: Homo sapiens; for GI50: A498; for IC (TGI): A498, 48 h, read-out: TGI; for CC50: A498, read-out: LC50
ACHN (Renal cancer) = experiment: NCI-60 screen (SRB, 48 h); details: for IC (TGI): 48 h, read-out: TGI
[5] = tested on: panel of approximately 60 cancer cell lines; experiment: NCI-60 screen (SRB, 48 h), full panel; details: for activity at 10 µM / IC (TGI) / GI50 / CC50: Homo sapiens; for activity at 10 µM / IC (TGI): 48 h; for IC (TGI): read-out: TGI MG_MID60, average over all cell lines; for CC50: read-out: LC50 MG_MID60, average over all cell lines
[6] = tested on: NCI-H322M (NSC lung cancer); experiment: NCI-60 screen (SRB, 48 h); details: Homo sapiens; for IC (TGI): 48 h, read-out: TGI
Colon Cancer subpanel = experiment: NCI-60 screen, subpanel; details: Homo sapiens; for IC (TGI): 48 h, read-out: TGI MG_MID; for GI50: read-out: GI50 MG_MID; for CC50: read-out: LC50 MG_MID
EKVX (NSC lung cancer) = experiment: NCI-60 screen (SRB, 48 h); details: Homo sapiens; for IC (TGI): 48 h, read-out: TGI
[7] = read-out: GI50 against all human tumor cell lines
[8] = read-out: GI50 against the most sensitive cell lines

CC1(C)CC[C@]2(CO)CC[C@]3(C)C(=CC[C@@H]4[C@@]5(C)CCCNC(C)(C)[C@@H]5CC[C@]43C)[C@@H]2C1 [Compound 3, azepanoerythrodiol]
GI50 (UACC-62 (Melanoma)): 1.92 µM
IC (TGI) (UACC-62 (Melanoma)): 3.93 µM
CC50 (UACC-62 (Melanoma)): 8.07 µM
GI50 (HOP-62 (NSC lung cancer)): 5.89 µM
IC (TGI) (HOP-62 (NSC lung cancer)): 20.4 µM
CC50 (HOP-62 (NSC lung cancer); HOP-62, read-out: LC50): 58.9 µM
GI50 (SN12C (Renal cancer)): 4.02 µM
IC (TGI) (SN12C (Renal cancer)): 16.8 µM
CC50 (SN12C (Renal cancer); read-out: LC50): 45.6 µM
GI50 [1]: 3.5 µM
IC (TGI) [1]: 13 µM
CC50 ([1]; read-out: LC50): 45.6 µM
GI50 [2]: 1.79 µM
IC (TGI) [2]: 3.74 µM
CC50 [2]: 7.81 µM
EC50 [3]: n.s.
GI50 (HCT-116 (Colon cancer)): 1.64 µM
activity at 10 µM (HCT-116 (Colon cancer)): -85.8%
IC (TGI) (HCT-116 (Colon cancer)): 3.11 µM
CC50 (HCT-116 (Colon cancer); HCT-116, read-out: LC50): 5.92 µM
GI50 (SNB-75 (CNS cancer)): 9.84 µM
IC (TGI) (SNB-75 (CNS cancer)): 2.17 µM
CC50 (SNB-75 (CNS cancer)): 47.1 µM
GI50 (BT-549 (Breast cancer); BT-549): 1.01 µM
IC (TGI) (BT-549 (Breast cancer)): 24.5 µM
CC50 (BT-549 (Breast cancer); BT-549, read-out: LC50 (the source's name)): 59.2 µM
GI50 (PC-3 (Prostate cancer)): 1.48 µM
IC (TGI) (PC-3 (Prostate cancer)): 3.33 µM
CC50 (PC-3 (Prostate cancer); PC-3, read-out: LC50): 7.47 µM
GI50 (OVCAR-8 (Ovarian cancer)): 3.83 µM
IC (TGI) (OVCAR-8 (Ovarian cancer)): 15.6 µM
CC50 (OVCAR-8 (Ovarian cancer); OVCAR-8, read-out: LC50): 54.1 µM
IC (TGI) (OVCAR-4 (Ovarian cancer)): 17.5 µM
GI50 (OVCAR-4 (Ovarian cancer); OVCAR-4): 4.48 µM
CC50 (OVCAR-4 (Ovarian cancer); OVCAR-4, read-out: LC50 (the source's name)): 45.2 µM
GI50 [4]: 10.2 µM
IC (TGI) [4]: 24 µM
CC50 ([4]; read-out: LC50): 56.3 µM
GI50 (SK-OV-3 (Ovarian cancer)): 14.1 µM
IC (TGI) (SK-OV-3 (Ovarian cancer)): 28.9 µM
CC50 (SK-OV-3 (Ovarian cancer); SK-OV-3, read-out: LC50): 59.2 µM
IC (TGI) (Renal Cancer subpanel): 17.4 µM
GI50 (Renal Cancer subpanel): 5.94 µM
CC50 (Renal Cancer subpanel): 49.7 µM
GI50 (786-0 (Renal cancer)): 2.25 µM
IC (TGI) (786-0 (Renal cancer)): 4.84 µM
CC50 (786-0 (Renal cancer); 786-0, read-out: LC50): 12.7 µM
GI50 (A498 (Renal cancer)): 16.7 µM
IC (TGI) (A498 (Renal cancer)): 38.1 µM
CC50 (A498 (Renal cancer)): 86.7 µM
GI50 (ACHN (Renal cancer); Homo sapiens): 3.44 µM
IC (TGI) (ACHN (Renal cancer); Homo sapiens): 11.5 µM
CC50 (ACHN (Renal cancer); Homo sapiens, read-out: LC50): 38.3 µM
Positive Cytostatic Effect (cell lines with percent growth 0 to 50 / total) ([5]; 1 dose 10 µM): 20/57
Positive Cytotoxic Effect (cell lines with percent growth < 0 / total) ([5]; 1 dose 10 µM): 19/57
number of cancer cell lines the compound was active against ([5]; 1 dose 10 µM): 30 cell lines
activity at 10 µM ([5]; read-out: Mean Growth, %): 18.9%
activity at 10 µM ([5]; read-out: Range of Growth, %): -88.4 to 89.3%
IC (TGI) [5]: 15.5 µM
GI50 ([5]; read-out: GI50 MG_MID60): 3.83 µM
GI50 [5, 7]: < 10 µM
GI50 [5, 8]: 0.2 to 0.94 µM
CC50 [5]: 32 µM
selectivity indexes at TGI level (subpanels) ([5]; MG_MID60/subpanel MG_MID): 3.59–4.69
GI50 [6]: 3.69 µM
IC (TGI) [6]: 10.3 µM
CC50 ([6]; read-out: LC50): 36 µM
IC (TGI) (Colon Cancer subpanel): 3.3 µM
GI50 (Colon Cancer subpanel): 1.99 µM
CC50 (Colon Cancer subpanel): 12.4 µM
GI50 (EKVX (NSC lung cancer)): 4.04 µM
IC (TGI) (EKVX (NSC lung cancer)): 20.1 µM
CC50 (EKVX (NSC lung cancer); read-out: LC50): > 100 µM

C=C(C)[C@@H]1CC[C@]2(C(=O)N[C@H](CO)Cc3ccccc3)CC[C@]3(C)[C@H](CC[C@@H]4[C@@]5(C)CCCNC(C)(C)[C@@H]5CC[C@]43C)[C@@H]12 [Compound 11]
GI50 (UACC-62 (Melanoma)): 1.76 µM
IC (TGI) (UACC-62 (Melanoma)): 3.39 µM
CC50 (UACC-62 (Melanoma)): 6.52 µM
GI50 (HOP-62 (NSC lung cancer)): 1.71 µM
IC (TGI) (HOP-62 (NSC lung cancer)): 3.34 µM
GI50 (SN12C (Renal cancer)): 1.81 µM
IC (TGI) (SN12C (Renal cancer)): 3.55 µM
GI50 [1]: 1.34 µM
IC (TGI) [1]: 2.77 µM
GI50 [2]: 1.52 µM
IC (TGI) [2]: 3.03 µM
CC50 [2]: 6.01 µM
EC50 ([3]; Mus musculus, NIH3T3, read-out: EC50): 1.23 ± 0.3 µM
GI50 (HCT-116 (Colon cancer)): 0.31 µM
activity at 10 µM (HCT-116 (Colon cancer)): -94.8%
IC (TGI) (HCT-116 (Colon cancer)): 1.25 µM
GI50 (SNB-75 (CNS cancer)): 1.43 µM
IC (TGI) (SNB-75 (CNS cancer)): 2.87 µM
CC50 (SNB-75 (CNS cancer)): 5.72 µM
Growth % of the Most Sensitive Cell Lines (SNB-75 (CNS cancer); SNB-75, 1 dose 10 µM): −95.12%
GI50 (BT-549 (Breast cancer); BT-549): 1.69 µM
IC (TGI) (BT-549 (Breast cancer)): 3.32 µM
GI50 (PC-3 (Prostate cancer)): 1.16 µM
IC (TGI) (PC-3 (Prostate cancer)): 2.62 µM
GI50 (OVCAR-8 (Ovarian cancer)): 1.12 µM
IC (TGI) (OVCAR-8 (Ovarian cancer)): 2.8 µM
IC (TGI) (OVCAR-4 (Ovarian cancer)): 0.94 µM
GI50 (OVCAR-4 (Ovarian cancer); OVCAR-4): 0.24 µM
GI50 [4]: 1.35 µM
IC (TGI) [4]: 3.01 µM
GI50 (SK-OV-3 (Ovarian cancer)): 1.73 µM
IC (TGI) (SK-OV-3 (Ovarian cancer)): 3.23 µM
IC (TGI) (Renal Cancer subpanel): 2.93 µM
GI50 (Renal Cancer subpanel): 1.46 µM
CC50 (Renal Cancer subpanel): 5.76 µM
GI50 (786-0 (Renal cancer)): 0.4 µM
IC (TGI) (786-0 (Renal cancer)): 1.6 µM
Growth % of the Most Sensitive Cell Lines (A498 (Renal cancer); A498, 1 dose 10 µM): −97.92%
GI50 (A498 (Renal cancer)): 1.49 µM
IC (TGI) (A498 (Renal cancer)): 2.94 µM
CC50 (A498 (Renal cancer)): 5.81 µM
Growth % of the Most Sensitive Cell Lines (ACHN (Renal cancer); 1 dose 10 µM): −95.87%
GI50 (ACHN (Renal cancer); Homo sapiens): 1.71 µM
IC (TGI) (ACHN (Renal cancer); Homo sapiens): 3.16 µM
number of cancer cell lines the compound was active against ([5]; 1 dose 10 µM): effective against the all NCI-60 cancer cell line panel
activity at 10 µM ([5]; read-out: Mean Growth, %): -83.1%
activity at 10 µM ([5]; read-out: Range of Growth, %): -97.9 to -46.7%
IC (TGI) [5]: 2.64 µM
GI50 ([5]; read-out: GI50 MG_MID60): 1.29 µM
GI50 [5, 7]: < 3 µM
GI50 [5, 8]: 0.2 to 0.94 µM
CC50 [5]: 5.62 µM
GI50 [6]: 1.55 µM
IC (TGI) [6]: 2.79 µM
IC (TGI) (Colon Cancer subpanel): 2.18 µM
GI50 (Colon Cancer subpanel): 0.96 µM
CC50 (Colon Cancer subpanel): 3.76 µM
GI50 (EKVX (NSC lung cancer)): 1.73 µM
IC (TGI) (EKVX (NSC lung cancer)): 3.49 µM

Reference: publication PMC7914897, “Cytotoxic Potential of a-Azepano- and 3-Amino-3,4-SeCo-Triterpenoids” (International Journal of Molecular Sciences, 2021)
